Assay type in all cases: functional, cell-based
For test [1], the system named is PC-3. Kind of test: Cytotoxicity against human PC3 cells after 48 hrs by SRB assay. Particulars: PC-3, 48 h. (In general: Sulforhodamine B stains cellular protein and so reports cell mass.)
Test [2] relates to HeLa. Kind of test: Cytotoxicity against human HeLa cells after 48 hrs by SRB assay.
Test [3] has as its system HepG2. Kind of test: Cytotoxicity against human HepG2 cells after 48 hrs by SRB assay. To be noted: HepG2, 48 h.

For `CN1C[C@@H](c2cccs2)[C@@]2(CCC/C(=C\c3cccs3)C2=O)[C@@]12C(=O)N(CN1CCOCC1)c1ccccc12`, the figures for the IC50 in test [1], in test [2] and in test [3] were 30.1 µM, 27.4 µM and 30 µM, respectively.

As for `Cc1ccc(/C=C2\CCC[C@]3(C2=O)[C@H](c2ccc(C)o2)CN(C)[C@]32C(=O)N(CN3CCOCC3)c3ccccc32)o1`, the concentration for half-maximal inhibition (IC50) in test [1] was 21.2 µM; in test [2] it was 18 µM; in test [3] it was 28.4 µM.

As to `Cc1ccc(/C=C2\CCC[C@]3(C2=O)[C@H](c2ccc(C)cc2)CN(C)[C@]32C(=O)N(CN3CCOCC3)c3ccccc32)cc1`, the figures for the IC50 in test [1], in test [2] and in test [3] were 32.9 µM, 13.3 µM and 21.7 µM, respectively.

On to `COc1ccc(/C=C2\CCC[C@]3(C2=O)[C@H](c2ccc(OC)cc2)CN(C)[C@]32C(=O)N(CN3CCOCC3)c3ccccc32)cc1`, for which the results for the IC50 in test [1], in test [2] and in test [3] were 58.8 µM, 18.5 µM and 18.7 µM, respectively.

For the compound `COc1ccc(/C=C2\CCC[C@]3(C2=O)[C@H](c2ccc(OC)c(OC)c2)CN(C)[C@]32C(=O)N(CN3CCOCC3)c3ccccc32)cc1OC`, the IC50 was determined as 32 µM in test [1], 10.9 µM in test [2] and 6.99 µM in test [3].

Turning to `CN1C[C@@H](c2ccccc2)[C@@]2(CCC/C(=C\c3ccccc3)C2=O)[C@@]12C(=O)N(CN1CCOCC1)c1ccccc12`, the IC50 in test [1] came out at 26.7 µM; in test [2], 14.8 µM; in test [3], 13.3 µM.

Consider `CN1C[C@@H](c2ccc(Cl)cc2Cl)[C@@]2(CCC/C(=C\c3ccc(Cl)cc3Cl)C2=O)[C@@]12C(=O)N(CN1CCOCC1)c1ccccc12`, for which the IC50 in test [1] is 21.9 µM; in test [2], 22.3 µM; in test [3] it was 24.9 µM.

With `CN1C[C@@H](c2ccc(F)cc2)[C@@]2(CCC/C(=C\c3ccc(F)cc3)C2=O)[C@@]12C(=O)N(CN1CCOCC1)c1ccccc12`, the IC50 in test [1] was 19.5 µM; in test [2], 6.96 µM; in test [3], 8.09 µM.

Regarding `COc1cccc2c1C(=O)c1c(O)c3c(c(O)c1C2=O)C[C@@](O)(C(=O)CO)C[C@@H]3O[C@H]1C[C@H](N)[C@H](O)[C@H](C)O1` [DOXORUBICIN], the figures for the IC50 in test [1] and in test [2] were 8.83 µM and 7.71 µM, respectively.

By IC50 is commonly meant the concentration that inhibits the measured activity by half.

The values above are taken from ChEMBL document CHEMBL2424604, “Design, synthesis and QSAR studies of dispiroindole derivatives as new antiproliferative agents” (Eur J Med Chem, 2013).
